± gives the expanded uncertainty stated by the source.
Test: xn = mol fraction of the nth substance listed
Settings: for surface tension liquid-gas: Ring tensiometer; for mass density / viscosity: 100.8 kPa, Liquid

## OCc1ccccc1 [benzenemethanol] + CC(C)O
298.15 K, x2 = 0
  surface tension liquid-gas: 38.63 ± 0.54 mN/m
  mass density: 1041.4 ± 0.29 kg/m3
  viscosity: 5.555 ± 0.071 mPa·s
298.15 K, x2 = 0.05
  surface tension liquid-gas: 37.5 ± 0.53 mN/m
  mass density: 1032.82 ± 0.27 kg/m3
  viscosity: 5.299 ± 0.068 mPa·s
298.15 K, x2 = 0.1
  surface tension liquid-gas: 36.4 ± 0.51 mN/m
  mass density: 1023.74 ± 0.25 kg/m3
  viscosity: 5.053 ± 0.066 mPa·s
298.15 K, x2 = 0.15
  surface tension liquid-gas: 35.35 ± 0.5 mN/m
  mass density: 1014.27 ± 0.24 kg/m3
  viscosity: 4.799 ± 0.062 mPa·s
298.15 K, x2 = 0.2
  surface tension liquid-gas: 34.3 ± 0.49 mN/m
  mass density: 1004.39 ± 0.22 kg/m3
  viscosity: 4.559 ± 0.059 mPa·s
298.15 K, x2 = 0.25
  surface tension liquid-gas: 33.27 ± 0.48 mN/m
  mass density: 994.22 ± 0.22 kg/m3
  viscosity: 4.332 ± 0.057 mPa·s
298.15 K, x2 = 0.3
  surface tension liquid-gas: 32.27 ± 0.46 mN/m
  mass density: 983.63 ± 0.24 kg/m3
  viscosity: 4.116 ± 0.054 mPa·s
298.15 K, x2 = 0.35
  surface tension liquid-gas: 31.27 ± 0.45 mN/m
  mass density: 972.64 ± 0.27 kg/m3
  viscosity: 3.911 ± 0.051 mPa·s
298.15 K, x2 = 0.4
  surface tension liquid-gas: 30.3 ± 0.44 mN/m
  mass density: 961.2 ± 0.29 kg/m3
  viscosity: 3.714 ± 0.049 mPa·s
298.15 K, x2 = 0.45
  surface tension liquid-gas: 29.36 ± 0.43 mN/m
  mass density: 949.36 ± 0.32 kg/m3
  viscosity: 3.523 ± 0.046 mPa·s
298.15 K, x2 = 0.5
  surface tension liquid-gas: 28.45 ± 0.42 mN/m
  mass density: 937.02 ± 0.34 kg/m3
  viscosity: 3.335 ± 0.044 mPa·s
298.15 K, x2 = 0.55
  surface tension liquid-gas: 27.63 ± 0.41 mN/m
  mass density: 924.21 ± 0.36 kg/m3
  viscosity: 3.169 ± 0.042 mPa·s
298.15 K, x2 = 0.6
  surface tension liquid-gas: 26.83 ± 0.4 mN/m
  mass density: 910.83 ± 0.39 kg/m3
  viscosity: 3.01 ± 0.04 mPa·s
298.15 K, x2 = 0.65
  surface tension liquid-gas: 26.05 ± 0.39 mN/m
  mass density: 896.91 ± 0.41 kg/m3
  viscosity: 2.858 ± 0.038 mPa·s
298.15 K, x2 = 0.7
  surface tension liquid-gas: 25.28 ± 0.38 mN/m
  mass density: 882.44 ± 0.43 kg/m3
  viscosity: 2.715 ± 0.036 mPa·s
298.15 K, x2 = 0.75
  surface tension liquid-gas: 24.53 ± 0.37 mN/m
  mass density: 867.32 ± 0.46 kg/m3
  viscosity: 2.58 ± 0.034 mPa·s
298.15 K, x2 = 0.8
  surface tension liquid-gas: 23.78 ± 0.36 mN/m
  mass density: 851.54 ± 0.49 kg/m3
  viscosity: 2.46 ± 0.033 mPa·s
298.15 K, x2 = 0.85
  surface tension liquid-gas: 23.05 ± 0.35 mN/m
  mass density: 835.11 ± 0.51 kg/m3
  viscosity: 2.346 ± 0.031 mPa·s
298.15 K, x2 = 0.9
  surface tension liquid-gas: 22.33 ± 0.34 mN/m
  mass density: 817.95 ± 0.55 kg/m3
  viscosity: 2.251 ± 0.03 mPa·s
298.15 K, x2 = 0.95
  surface tension liquid-gas: 21.61 ± 0.33 mN/m
  mass density: 800 ± 0.58 kg/m3
  viscosity: 2.148 ± 0.029 mPa·s
308.15 K, x2 = 0
  surface tension liquid-gas: 37.73 ± 0.53 mN/m
  mass density: 1033.6 ± 0.27 kg/m3
  viscosity: 4.093 ± 0.054 mPa·s
308.15 K, x2 = 0.05
  surface tension liquid-gas: 36.66 ± 0.52 mN/m
  mass density: 1025.02 ± 0.26 kg/m3
  viscosity: 3.91 ± 0.051 mPa·s
308.15 K, x2 = 0.1
  surface tension liquid-gas: 35.63 ± 0.5 mN/m
  mass density: 1015.91 ± 0.24 kg/m3
  viscosity: 3.73 ± 0.049 mPa·s
308.15 K, x2 = 0.15
  surface tension liquid-gas: 34.6 ± 0.49 mN/m
  mass density: 1006.4 ± 0.22 kg/m3
  viscosity: 3.558 ± 0.047 mPa·s
308.15 K, x2 = 0.2
  surface tension liquid-gas: 33.59 ± 0.48 mN/m
  mass density: 996.5 ± 0.21 kg/m3
  viscosity: 3.389 ± 0.045 mPa·s
308.15 K, x2 = 0.25
  surface tension liquid-gas: 32.58 ± 0.47 mN/m
  mass density: 986.26 ± 0.24 kg/m3
  viscosity: 3.23 ± 0.043 mPa·s
308.15 K, x2 = 0.3
  surface tension liquid-gas: 31.58 ± 0.45 mN/m
  mass density: 975.59 ± 0.26 kg/m3
  viscosity: 3.076 ± 0.041 mPa·s
308.15 K, x2 = 0.35
  surface tension liquid-gas: 30.58 ± 0.44 mN/m
  mass density: 964.56 ± 0.28 kg/m3
  viscosity: 2.921 ± 0.039 mPa·s
308.15 K, x2 = 0.4
  surface tension liquid-gas: 29.6 ± 0.43 mN/m
  mass density: 953.08 ± 0.31 kg/m3
  viscosity: 2.772 ± 0.037 mPa·s
308.15 K, x2 = 0.45
  surface tension liquid-gas: 28.66 ± 0.42 mN/m
  mass density: 941.19 ± 0.33 kg/m3
  viscosity: 2.631 ± 0.035 mPa·s
308.15 K, x2 = 0.5
  surface tension liquid-gas: 27.75 ± 0.41 mN/m
  mass density: 928.79 ± 0.36 kg/m3
  viscosity: 2.49 ± 0.033 mPa·s
308.15 K, x2 = 0.55
  surface tension liquid-gas: 26.93 ± 0.4 mN/m
  mass density: 915.93 ± 0.38 kg/m3
  viscosity: 2.37 ± 0.032 mPa·s
308.15 K, x2 = 0.6
  surface tension liquid-gas: 26.15 ± 0.39 mN/m
  mass density: 902.49 ± 0.4 kg/m3
  viscosity: 2.256 ± 0.03 mPa·s
308.15 K, x2 = 0.65
  surface tension liquid-gas: 25.38 ± 0.38 mN/m
  mass density: 888.53 ± 0.42 kg/m3
  viscosity: 2.145 ± 0.029 mPa·s
308.15 K, x2 = 0.7
  surface tension liquid-gas: 24.61 ± 0.37 mN/m
  mass density: 874.02 ± 0.45 kg/m3
  viscosity: 2.042 ± 0.027 mPa·s
308.15 K, x2 = 0.75
  surface tension liquid-gas: 23.85 ± 0.36 mN/m
  mass density: 858.91 ± 0.47 kg/m3
  viscosity: 1.946 ± 0.026 mPa·s
308.15 K, x2 = 0.8
  surface tension liquid-gas: 23.1 ± 0.35 mN/m
  mass density: 843.1 ± 0.5 kg/m3
  viscosity: 1.851 ± 0.025 mPa·s
308.15 K, x2 = 0.85
  surface tension liquid-gas: 22.35 ± 0.34 mN/m
  mass density: 826.58 ± 0.53 kg/m3
  viscosity: 1.761 ± 0.024 mPa·s
308.15 K, x2 = 0.9
  surface tension liquid-gas: 21.6 ± 0.33 mN/m
  mass density: 809.39 ± 0.56 kg/m3
  viscosity: 1.675 ± 0.023 mPa·s
308.15 K, x2 = 0.95
  surface tension liquid-gas: 20.85 ± 0.32 mN/m
  mass density: 791.45 ± 0.59 kg/m3
  viscosity: 1.602 ± 0.022 mPa·s
318.15 K, x2 = 0
  surface tension liquid-gas: 36.75 ± 0.52 mN/m
  mass density: 1025.72 ± 0.26 kg/m3
  viscosity: 3.12 ± 0.041 mPa·s
318.15 K, x2 = 0.05
  surface tension liquid-gas: 35.75 ± 0.51 mN/m
  mass density: 1017.09 ± 0.24 kg/m3
  viscosity: 2.989 ± 0.04 mPa·s
318.15 K, x2 = 0.1
  surface tension liquid-gas: 34.76 ± 0.49 mN/m
  mass density: 1007.96 ± 0.22 kg/m3
  viscosity: 2.864 ± 0.038 mPa·s
318.15 K, x2 = 0.15
  surface tension liquid-gas: 33.77 ± 0.48 mN/m
  mass density: 998.38 ± 0.21 kg/m3
  viscosity: 2.745 ± 0.036 mPa·s
318.15 K, x2 = 0.2
  surface tension liquid-gas: 32.78 ± 0.47 mN/m
  mass density: 988.43 ± 0.23 kg/m3
  viscosity: 2.628 ± 0.035 mPa·s
318.15 K, x2 = 0.25
  surface tension liquid-gas: 31.81 ± 0.46 mN/m
  mass density: 978.11 ± 0.25 kg/m3
  viscosity: 2.513 ± 0.033 mPa·s
318.15 K, x2 = 0.3
  surface tension liquid-gas: 30.83 ± 0.45 mN/m
  mass density: 967.39 ± 0.27 kg/m3
  viscosity: 2.4 ± 0.032 mPa·s
318.15 K, x2 = 0.35
  surface tension liquid-gas: 29.85 ± 0.43 mN/m
  mass density: 956.29 ± 0.29 kg/m3
  viscosity: 2.285 ± 0.031 mPa·s
318.15 K, x2 = 0.4
  surface tension liquid-gas: 28.9 ± 0.42 mN/m
  mass density: 944.75 ± 0.32 kg/m3
  viscosity: 2.172 ± 0.029 mPa·s
318.15 K, x2 = 0.45
  surface tension liquid-gas: 27.95 ± 0.41 mN/m
  mass density: 932.79 ± 0.35 kg/m3
  viscosity: 2.059 ± 0.028 mPa·s
318.15 K, x2 = 0.5
  surface tension liquid-gas: 27.05 ± 0.4 mN/m
  mass density: 920.32 ± 0.38 kg/m3
  viscosity: 1.953 ± 0.026 mPa·s
318.15 K, x2 = 0.55
  surface tension liquid-gas: 26.25 ± 0.39 mN/m
  mass density: 907.36 ± 0.4 kg/m3
  viscosity: 1.858 ± 0.025 mPa·s
318.15 K, x2 = 0.6
  surface tension liquid-gas: 25.48 ± 0.38 mN/m
  mass density: 893.86 ± 0.41 kg/m3
  viscosity: 1.769 ± 0.024 mPa·s
318.15 K, x2 = 0.65
  surface tension liquid-gas: 24.73 ± 0.37 mN/m
  mass density: 879.84 ± 0.44 kg/m3
  viscosity: 1.68 ± 0.023 mPa·s
318.15 K, x2 = 0.7
  surface tension liquid-gas: 23.98 ± 0.36 mN/m
  mass density: 865.32 ± 0.46 kg/m3
  viscosity: 1.594 ± 0.022 mPa·s
318.15 K, x2 = 0.75
  surface tension liquid-gas: 23.23 ± 0.35 mN/m
  mass density: 850.19 ± 0.49 kg/m3
  viscosity: 1.511 ± 0.021 mPa·s
318.15 K, x2 = 0.8
  surface tension liquid-gas: 22.48 ± 0.34 mN/m
  mass density: 834.29 ± 0.52 kg/m3
  viscosity: 1.434 ± 0.02 mPa·s
318.15 K, x2 = 0.85
  surface tension liquid-gas: 21.73 ± 0.33 mN/m
  mass density: 817.75 ± 0.55 kg/m3
  viscosity: 1.359 ± 0.019 mPa·s
318.15 K, x2 = 0.9
  surface tension liquid-gas: 20.96 ± 0.33 mN/m
  mass density: 800.5 ± 0.58 kg/m3
  viscosity: 1.295 ± 0.018 mPa·s
318.15 K, x2 = 0.95
  surface tension liquid-gas: 20.19 ± 0.32 mN/m
  mass density: 782.46 ± 0.61 kg/m3
  viscosity: 1.228 ± 0.017 mPa·s

Reference: the NIST ThermoML archive (doi:10.1021/je700140j)
